Laboratory results: patent US20080194585A1, “Fungicidal Pyrazine Derivatives” (priority 2005, published 2008)
Where two headings read alike, the source gives them in different places.

Legend:
Plasmopara viticola = assay: Test D: grape downy mildew, spray after inoculation of grape seedlings; assay type: in vivo; details: for pest or weed control at 200 ppm / pest or weed control at 40 ppm: Plasmopara viticola, 168 h, read-out: Test D disease control rating; for pest or weed control at 200 ppm / Test D disease control rating: 200 ppm
Description: Upon removal, disease ratings were made. […] A dash (-) indicates no test results.

Phytophthora infestans = assay: whole plant or invertebrate; assay type: in vivo; details: for pest or weed control at 200 ppm / pest or weed control at 40 ppm: Phytophthora infestans, in Solanum lycopersicum, topical, 144 h, read-out: Test F disease control rating; for Test F disease control rating: 200 ppm
Septoria tritici = assay: Test J: wheat leaf blotch, preventive spray on wheat seedlings; assay type: in vivo; details: for pest or weed control at 200 ppm / pest or weed control at 40 ppm: Zymoseptoria tritici, 528 h, read-out: Test J disease control rating; for pest or weed control at 200 ppm / Test J disease control rating: 200 ppm
Description: A dash (-) indicates no test results.

fusarium graminearium = assay: Test I: wheat head scab, preventive spray on wheat seedlings; details: for pest or weed control at 200 ppm / pest or weed control at 40 ppm: Fusarium, in Triticum aestivum, topical, 192 h; for pest or weed control at 200 ppm: read-out: Test I disease control rating, 200 ppm; for Test I disease control rating: 200 ppm
Description: (the causal agent of wheat head scab) and incubated in a saturated atmosphere at 20° C. for 72 h, and then moved to a growth chamber at 22° C. for 5 days, after which disease ratings were made.

[1] = test system: Puccinia recondita f. sp. tritici; assay: Test K: wheat leaf rust, preventive spray on wheat seedlings; details: for pest or weed control at 200 ppm / pest or weed control at 40 ppm: Puccinia recondita, in Triticum aestivum, 192 h, read-out: Test K disease control rating; for Test K disease control rating: 200 ppm
Botrytis cinerea = assay: Test E: tomato botrytis, preventive spray on tomato seedlings; details: for pest or weed control at 200 ppm / pest or weed control at 40 ppm: Botrytis cinerea, in Solanum lycopersicum, topical, 72 h, read-out: Test E disease control rating; for Test E disease control rating: 200 ppm
Septoria nodorum = assay: Test H: wheat glum blotch, preventive spray on wheat seedlings; details: for pest or weed control at 200 ppm / pest or weed control at 40 ppm: Parastagonospora nodorum, in Triticum aestivum, topical, 168 h; for pest or weed control at 200 ppm: read-out: Test H disease control rating, 200 ppm; for Test H disease control rating: 200 ppm
Description: (the causal agent of wheat glum blotch) and incubated in a saturated atmosphere at 20° C. for 48 h, and then moved to a growth chamber at 22° C. for 5 days, after which disease ratings were made.

[2] = test system: Erysiphe graminis f. sp. tritici; assay: Test L: wheat powdery mildew, preventive spray on wheat seedlings; details: for pest or weed control at 200 ppm / pest or weed control at 40 ppm: Blumeria graminis, in Triticum aestivum, 168 h; for pest or weed control at 200 ppm: read-out: Test L disease control rating, 200 ppm; for Test L disease control rating: 200 ppm
Pythium aphanidermatum = assay: Test A: bluegrass pythium blight, preventive spray on bluegrass seedlings; details: for pest or weed control at 200 ppm / pest or weed control at 40 ppm: Pythium aphanidermatum, 120 h, read-out: Test A disease control rating; for Test A disease control rating: 200 ppm
Rhizoctonia oryzae = assay: Test G: turf brown patch, preventive spray on creeping bent grass seedlings; details: for pest or weed control at 200 ppm / pest or weed control at 40 ppm: Waitea circinata, in Agrostis stolonifera, topical, 144 h; for pest or weed control at 200 ppm: read-out: Test G disease control rating, 200 ppm; for Test G disease control rating: 200 ppm
Description: (the causal agent of turf brown patch) and incubated in a saturated atmosphere at 27° C. for 24 h, and then moved to a growth chamber at 27° C. for 5 days, after which disease ratings were made.

[3] = test system: Colletotrichum orbiculare; assay: Test B: cucumber Colletotrichum anthracnose, preventive spray on cucumber seedlings; details: for pest or weed control at 200 ppm / pest or weed control at 40 ppm: Colletotrichum orbiculare, in Cucumis sativus, 144 h; for pest or weed control at 200 ppm: read-out: Test B disease control rating, 200 ppm; for Test B disease control rating: 200 ppm
[4] = read-out: Test I disease control rating, 40 ppm (*)
[5] = read-out: Test H disease control rating, 40 ppm (*)
[6] = read-out: Test L disease control rating, 40 ppm (*)
[7] = read-out: Test G disease control rating, 40 ppm (*)
[8] = read-out: Test B disease control rating, 40 ppm (*)
[9] = 100 = 100% disease control, 0 = no control
[10] = 40 ppm (marked *), 100 = 100% disease control, 0 = no control
[11] = 100 = 100% disease control, 0 = no control relative to controls

| SMILES | pest or weed control at 200 ppm (Phytophthora infestans) | pest or weed control at 200 ppm [1] | pest or weed control at 200 ppm (Botrytis cinerea) | pest or weed control at 200 ppm (Pythium aphanidermatum) | pest or weed control at 40 ppm (Phytophthora infestans) | pest or weed control at 40 ppm [1] | pest or weed control at 40 ppm (Botrytis cinerea) | pest or weed control at 40 ppm (Pythium aphanidermatum) | Test D disease control rating (Plasmopara viticola) | Test F disease control rating (Phytophthora infestans) | Test J disease control rating (Septoria tritici) | Test I disease control rating (fusarium graminearium) | Test K disease control rating [1] | Test E disease control rating (Botrytis cinerea) | Test H disease control rating (Septoria nodorum) | Test L disease control rating [2] | Test A disease control rating (Pythium aphanidermatum) | Test G disease control rating (Rhizoctonia oryzae) | Test B disease control rating [3] | further results |
| --- | --- | --- | --- | --- | --- | --- | --- | --- | --- | --- | --- | --- | --- | --- | --- | --- | --- | --- | --- | --- |
| CC(C)Cn1c(-c2c(F)cccc2F)c(Br)nc(-n2cccn2)c1=O [Compound 99, 5-Bromo-6-(2,6-difluorophenyl)-1-(2-methylpropyl)-3-(1H-pyrazol-1-yl)-2(1H)-pyrazinone] | 0% | 100% | 100% | 0% |  |  |  |  |  |  |  |  |  |  |  |  |  |  |  | pest or weed control at 200 ppm (Plasmopara viticola): 0%; pest or weed control at 200 ppm (Septoria tritici): 100%; pest or weed control at 200 ppm (fusarium graminearium): 0%; pest or weed control at 200 ppm (Septoria nodorum): 100%; pest or weed control at 200 ppm [2]: 100%; pest or weed control at 200 ppm (Rhizoctonia oryzae): 82%; pest or weed control at 200 ppm [3]: 99% |
| O=c1c(-n2cccn2)nc(Cl)c(-c2c(F)cccc2F)n1-c1ccccc1 [Compound 161, 5-Chloro-6-(2,6-difluorophenyl)-1-phenyl-3-(1H-pyrazol-1-yl)-2(1H)-pyrazinone] |  |  |  |  | 0% | 100% | 100% | 0% |  |  |  |  |  |  |  |  |  |  |  | pest or weed control at 40 ppm (Plasmopara viticola; 40 ppm (*)): 0%; pest or weed control at 40 ppm (Septoria tritici; 40 ppm (*)): 97%; pest or weed control at 40 ppm (fusarium graminearium; [4]): 69%; pest or weed control at 40 ppm (Septoria nodorum; [5]): 100%; pest or weed control at 40 ppm [2, 6]: 90%; pest or weed control at 40 ppm (Rhizoctonia oryzae; [7]): 68%; pest or weed control at 40 ppm [3, 8]: 77% |
| CCC(C)Cn1c(-c2ccc(F)cc2Cl)c(Cl)nc(-n2ccc(C)n2)c1=O (centres unmarked) [Compound 170, 5-Chloro-6-(2-chloro-4-fluorophenyl)-1-(2-methylbutyl)-3-(3-methyl-1H-pyrazol-1-yl)-2(1H)-pyrazinone] |  |  |  |  | 0% | 100% | 100% | 0% |  |  |  |  |  |  |  |  |  |  |  | pest or weed control at 40 ppm (Plasmopara viticola; 40 ppm (*)): 0%; pest or weed control at 40 ppm (Septoria tritici; 40 ppm (*)): 100%; pest or weed control at 40 ppm (fusarium graminearium; [4]): 0%; pest or weed control at 40 ppm (Septoria nodorum; [5]): 100%; pest or weed control at 40 ppm [2, 6]: 99%; pest or weed control at 40 ppm (Rhizoctonia oryzae; [7]): 26%; pest or weed control at 40 ppm [3, 8]: 100% |
| CCC(C)Cn1c(-c2c(F)cccc2F)c(Cl)nc(C(N)=O)c1=O (centres unmarked) [Compound 298, 6-Chloro-5-(2,6-difluorophenyl)-3,4-dihydro-4-(2-methylbutyl)-3-oxopyrazinecarboxamide] | 100% | 100% | 99% | 88% |  |  |  |  |  |  |  |  |  |  |  |  |  |  |  | pest or weed control at 200 ppm (Plasmopara viticola; [9]): 85%; pest or weed control at 200 ppm (Septoria tritici; [9]): 100%; pest or weed control at 200 ppm (fusarium graminearium; [9]): 96%; pest or weed control at 200 ppm (Septoria nodorum; [9]): 99%; pest or weed control at 200 ppm [2, 9]: 89%; pest or weed control at 200 ppm (Rhizoctonia oryzae; [9]): 78%; pest or weed control at 200 ppm [3, 9]: 66% |
| O=c1c(-n2cccn2)nc(Cl)c(-c2c(F)cc(F)cc2F)n1-c1cccc(F)c1 [Compound 324, 5-Chloro-1-(3-fluorophenyl)-3-(1H-pyrazol-1-yl)-6-(2,4,6-trifluorophenyl)-2(1H)-pyrazinone] |  |  |  |  | 0% | 100% | 99% | 0% |  |  |  |  |  |  |  |  |  |  |  | pest or weed control at 40 ppm (Plasmopara viticola; [10]): 0%; pest or weed control at 40 ppm (Septoria tritici; [10]): 100%; pest or weed control at 40 ppm (fusarium graminearium; read-out: Test I disease control rating, 40 ppm (marked *), 100 = 100% disease control, 0 = no control): 49%; pest or weed control at 40 ppm (Septoria nodorum; read-out: Test H disease control rating, 40 ppm (marked *), 100 = 100% disease control, 0 = no control): 100%; pest or weed control at 40 ppm ([2]; read-out: Test L disease control rating, 40 ppm (marked *), 100 = 100% disease control, 0 = no control): 100%; pest or weed control at 40 ppm (Rhizoctonia oryzae; read-out: Test G disease control rating, 40 ppm (marked *), 100 = 100% disease control, 0 = no control): 97%; pest or weed control at 40 ppm ([3]; read-out: Test B disease control rating, 40 ppm (marked *), 100 = 100% disease control, 0 = no control): 99% |
| CCC(C)c1c(Cl)nc(-n2cccn2)c(=O)n1CC(C)C (centres unmarked) [Compound 424, 5-Chloro-6-(1-methylpropyl)-1-(2-methylpropyl)-3-(1H-pyrazol-1-yl)-2(1H)-pyrazinone] | 0% | 100% | 96% | 0% |  |  |  |  |  |  |  |  |  |  |  |  |  |  |  | pest or weed control at 200 ppm (Plasmopara viticola; [11]): 0%; pest or weed control at 40 ppm (Septoria tritici; [10]): 37%; pest or weed control at 200 ppm (fusarium graminearium; [11]): 0%; pest or weed control at 200 ppm (Septoria nodorum; [11]): 0%; pest or weed control at 200 ppm [2, 11]: 100%; pest or weed control at 200 ppm (Rhizoctonia oryzae; [11]): 99%; pest or weed control at 200 ppm [3, 11]: 0% |
| O=c1c(-n2cncn2)nc(Cl)c(-c2c(F)cccc2F)n1CC1CC1 [compound 17] |  |  |  |  |  |  |  |  | 54% | 0% | 87% | 94% | 100% | 100% | 100% | 99% | 0% | 99% | 0% |  |
| CC(C)Cn1c(-c2ccc(Cl)cc2)c(Cl)nc(-n2cccn2)c1=O [compound 22] |  |  |  |  |  |  |  |  | 0% | 0% | 98% | 0% | 79% | 100% | 0% | 0% | 0% | 0% | 0% |  |
| CCCC(C)n1c(-c2c(F)cccc2F)c(Cl)nc(-n2cccn2)c1=O (centres unmarked) [compound 25] |  |  |  |  |  |  |  |  | 0% | 0% | 100% | 0% | 100% | 99% | 100% | 100% | 0% | 100% | 100% |  |
| CC(C)n1c(-c2c(F)cccc2F)c(Cl)nc(-n2cccn2)c1=O [compound 26] |  |  |  |  |  |  |  |  | 16% | 0% | 96% | 0% | 100% | 100% | 100% | 100% | 0% | 92% | 99% |  |
